Data reported in patent US20240279190A1, “COMPOUNDS FOR MODULATING PLATELET-TYPE 12-(S)-LIPOXYGENASE AND METHODS OF USE FOR SAME” (The Regents of The University of California, priority 2021, published 2024).
Numbering of substitutions follows the chain as printed.

What was measured:
12-LOX mutant F414L = target: T1, 12-LOX mutant F414L (Homo sapiens, UniProt P18054, F414L); experiment: UV-Vis-based IC50 assay, F414L mutant; type: biochemical
T1 construct: 6xHis (N); made in house; pFastBac1 shuttle vector
T1 sequence (P18054 1-663 F414L): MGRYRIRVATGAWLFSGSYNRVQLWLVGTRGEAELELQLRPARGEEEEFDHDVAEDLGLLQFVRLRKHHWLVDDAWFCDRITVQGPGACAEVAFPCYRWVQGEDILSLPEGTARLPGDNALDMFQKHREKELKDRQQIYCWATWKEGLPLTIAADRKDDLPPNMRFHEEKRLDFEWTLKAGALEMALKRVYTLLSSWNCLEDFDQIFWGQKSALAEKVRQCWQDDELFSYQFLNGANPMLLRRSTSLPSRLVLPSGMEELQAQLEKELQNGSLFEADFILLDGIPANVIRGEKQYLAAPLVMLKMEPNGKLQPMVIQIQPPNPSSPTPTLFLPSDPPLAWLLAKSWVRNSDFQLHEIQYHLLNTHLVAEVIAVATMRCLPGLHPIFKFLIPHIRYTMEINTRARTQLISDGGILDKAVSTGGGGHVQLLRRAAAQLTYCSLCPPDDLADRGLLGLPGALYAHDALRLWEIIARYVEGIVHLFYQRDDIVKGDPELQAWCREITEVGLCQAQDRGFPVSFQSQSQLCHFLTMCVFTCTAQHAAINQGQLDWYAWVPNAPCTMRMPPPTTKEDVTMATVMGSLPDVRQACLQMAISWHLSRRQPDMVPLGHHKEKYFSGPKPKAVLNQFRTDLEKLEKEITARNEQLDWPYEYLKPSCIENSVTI
Source text: (§1) Based on the ML355 binding mode predicted by the modeling, all residues within 5 Å of any atom of ML355 were selected for experimental mutagenesis. The selected residues were replaced with amino acids with either bulkier or smaller side chains in order to determine what specific interactions play a role in inhibitor binding. […] The numbering refers to the UniProt accession number P18054 sequence, with the N-terminal methionine assigned as amino acid number one. The primers for all mutants were designed using the online QuikChange Primer Design tool (http://www.genomics.agilent.com/primerDesignProgram.jsp) from Agilent Technologies (CA, USA). The mutations were introduced by using the QuikChange® II XL site-directed mutagenesis kit from Agilent, following the instructions in the protocol provided. […]
(§2) The wild type 12-LOX (wt-12-LOX) enzyme and its mutants were expressed as fusion proteins, with an N-terminal 6×His tag, and were affinity purified by nickel-iminodiacetic acid agarose using FPLC (Biorad).
(§3) The percent inhibition was determined by comparing the enzyme rates of the control (DMSO solvent) and the inhibitor sample by following the formation of the conjugated diene product at 234 nm (ε=25,000 M^−1cm^−1). […] The substrate concentration was quantitatively determined by allowing the enzymatic reaction to go to completion in the presence of soybean LOX-1. […]

[1] = target: T2, 12-LOX mutant L407G/A417I/V418M (Homo sapiens, UniProt P18054, A417I/L407G/V418M); experiment: UV-Vis-based IC50 assay, L407G/A417I/V418M mutant; type: biochemical
T2 construct: 6xHis (N); made in house; pFastBac1 shuttle vector
T2 sequence (P18054 1-663 L407G/A417I/V418M): T1 sequence (P18054 1-663 F414L) with L407G, L414F, A417I, V418M
Source text: as §1, §2, §3

With `COc1cccc(CNc2ccc(S(=O)(=O)Nc3nc4c(ccc5ccccc54)s3)cc2)c1O` [Compound LOX-12-001, 4-((2-hydroxy-3-methoxybenzyl)amino)-N-(naphtho[1,2-d]thiazol-2-yl)benzenesulfonamide] the IC50 (12-LOX mutant F414L; F414L) was 180 ± 10 nM, the “fold increase in IC50 compared to wt12-LOX” value (12-LOX mutant F414L; F414L vs wt12-LOX) was 3.6 fold and the IC50 [1] was over 150000 nM. The inhibition at 20 µM ([1]; 20 uM inhibitor, read-out: Percent inhibition at 20 uM inhibitor) was 10%.
